Laboratory results published in the supplement of paper PMC8253809.

Experiments:
[1] = test system: DIPGX37 (H3.3 K27M diffuse intrinsic pontine glioma line); experiment: area under dose-response curve of % growth inhibition (log2 RLU vs DMSO / staurosporine), 1e-11 to 1e-4 M (% x log10 M); higher = more growth inhibition
Outline: (§1)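 Patient-derived pHGG/DIPG cell lines and astrocyte controls were grown on 1% Geltrex-coated 384-well plates and exposed to a 10-point threefold dilution series (mean top concentration 35 μM), in triplicate. Exposure was 7 days (iAstro 3 days) at 37 °C, 5% CO2. CellTiter-Glo luminescence was log2-transformed and normalised per plate to % activity between solvent and positive controls. Area under the curve was taken by trapezoid rule from the fitted log-logistic curve, or from a smoothing spline when the sigmoid fit failed.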

[2] = test system: HABS (astrocyte control); experiment: as above
Outline: as §1

[3] = test system: iAstro (astrocyte control); experiment: as above
Outline: as §1

[4] = test system: HGGX42 (H3.3 G34R paediatric high-grade glioma line); experiment: as above
Outline: as §1

[5] = test system: HGGX2 (paediatric high-grade glioma line); experiment: as above
Outline: as §1

[6] = test system: SUDIPGIV (diffuse intrinsic pontine glioma line); experiment: as above
Outline: as §1

[7] = test system: SUDIPGXIX (diffuse intrinsic pontine glioma line); experiment: as above
Outline: as §1

[8] = test system: DIPGX29 (H3.3 K27M diffuse intrinsic pontine glioma line); experiment: as above
Outline: as §1

[9] = test system: SUDIPGXIII (diffuse intrinsic pontine glioma line); experiment: as above
Outline: as §1

[10] = test system: SUDIPGVI (diffuse intrinsic pontine glioma line); experiment: as above
Outline: as §1

[11] = test system: SUDIPGXXI (diffuse intrinsic pontine glioma line); experiment: as above
Outline: as §1

[12] = test system: DIPGX7 (H3.3 K27M diffuse intrinsic pontine glioma line); experiment: as above
Outline: as §1

[13] = test system: SUDIPGXVII (diffuse intrinsic pontine glioma line); experiment: as above
Outline: as §1

[14] = test system: HGGX6 (H3.3 G34R paediatric high-grade glioma line); experiment: as above
Outline: as §1

[15] = test system: HGGX39 (paediatric high-grade glioma line); experiment: as above
Outline: as §1

[16] = test system: DIPGX9 (diffuse intrinsic pontine glioma line); experiment: as above
Outline: as §1

[17] = test system: DIPGX37; experiment: EC50 (inflection of fitted growth-inhibition curve) (log10 M)
Outline: (§2)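 Patient-derived pHGG/DIPG cell lines and astrocyte controls were plated in 384-well plates coated with 1% Geltrex and dosed by pin tool with a 10-point threefold dilution series (mean top concentration 35 μM), in triplicate. Cells were exposed for 7 days (3 days for iAstro) at 37 °C and 5% CO2. CellTiter-Glo luminescence was log2-transformed, normalised per plate to % activity between negative (solvent) and positive control wells, and pooled. EC50 and maximal response (yFin) were taken from whichever three- or four-parameter log-logistic fit had the lowest AICc.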

[18] = test system: HABS; experiment: as above
Outline: as §2

[19] = test system: iAstro; experiment: as above
Outline: as §2

[20] = test system: HGGX42; experiment: as above
Outline: as §2

[21] = test system: HGGX2; experiment: as above
Outline: as §2

[22] = test system: SUDIPGIV; experiment: as above
Outline: as §2

[23] = test system: DIPGX29; experiment: as above
Outline: as §2

[24] = test system: SUDIPGXIII; experiment: as above
Outline: as §2

[25] = test system: SUDIPGVI; experiment: as above
Outline: as §2

[26] = test system: SUDIPGXXI; experiment: as above
Outline: as §2

[27] = test system: DIPGX7; experiment: as above
Outline: as §2

[28] = test system: SUDIPGXVII; experiment: as above
Outline: as §2

[29] = test system: HGGX6; experiment: as above
Outline: as §2

[30] = test system: HGGX39; experiment: as above
Outline: as §2

[31] = test system: DIPGX9; experiment: as above
Outline: as §2

| Compound | area under dose-response curve [1] | area under dose-response curve [2] | area under dose-response curve [3] | area under dose-response curve [4] | area under dose-response curve [5] | area under dose-response curve [6] | area under dose-response curve [7] | area under dose-response curve [8] | area under dose-response curve [9] | area under dose-response curve [10] | area under dose-response curve [11] | area under dose-response curve [12] | area under dose-response curve [13] | area under dose-response curve [14] | area under dose-response curve [15] | area under dose-response curve [16] | EC50 (log10 M) [17] | EC50 (log10 M) [18] | EC50 (log10 M) [19] | EC50 (log10 M) [20] | EC50 (log10 M) [21] | EC50 (log10 M) [22] | EC50 (log10 M) [23] | EC50 (log10 M) [24] | EC50 (log10 M) [25] | EC50 (log10 M) [26] | EC50 (log10 M) [27] | EC50 (log10 M) [28] | EC50 (log10 M) [29] | EC50 (log10 M) [30] | EC50 (log10 M) [31] |
| --- | --- | --- | --- | --- | --- | --- | --- | --- | --- | --- | --- | --- | --- | --- | --- | --- | --- | --- | --- | --- | --- | --- | --- | --- | --- | --- | --- | --- | --- | --- | --- |
| CC(C)c1cc(C(=O)N2Cc3ccc(CN4CCN(C)CC4)cc3C2)c(O)cc1O | 264 | 215 | 88 | 131 | 145 | 152 | 230 | 189 | 111 | 88.8 | 256 | 125 | 164 | 92.3 | 218 | 281 | -6.85 | -6.06 | -7.01 | -5.89 | -6.72 | -6.68 | -5.68 | -6.14 | -5.95 | -6.4 | -5.07 | -6.44 | -6.73 | -6.08 | -6.96 |
| c1ccc2c(-c3cnn4cc(-c5ccc(N6CCNCC6)cc5)cnc34)ccnc2c1 | 163 | 129 | 137 | 171 | 185 | 171 | 187 | 165 | 162 | 166 | 291 | 183 | 172 | 146 | 147 | 202 | -5.65 | -5.19 | -5.51 | -5.68 | -5.78 | -5.52 | -5.73 | -5.56 | -5.58 | -6.41 | -5.63 | -5.61 | -5.58 | -5.65 | -5.68 |
| COc1ccc(C[C@H](NC(=O)[C@H](C)NC(=O)CN2CCOCC2)C(=O)N[C@@H](Cc2ccccc2)C(=O)C2(C)CO2)cc1 (stereo in doubt) [ONX-0914] | 242 | 206 | 243 | 186 | 277 | 255 | 245 | 156 | 230 | 233 | 328 | 220 | 175 | 182 | 209 | 252 | -6.53 | -6.19 | -7.31 | -6.73 | -7.17 | -6.84 | -6.14 | -6.56 | -6.72 | -7.49 | -6.25 | -5.91 | -5.97 | -6.36 | -6.6 |
| COc1cccc2c1C(=O)c1c(O)c3c(c(O)c1C2=O)C[C@@](O)(C(=O)CO)C[C@@H]3O[C@H]1C[C@H](N)[C@H](O)[C@H](C)O1 [DOXORUBICIN] | 210 | 210 | 78.3 | 260 | 168 | 255 | 294 | 169 | 170 | 159 | 420 | 213 | 195 | 147 | 174 | 293 | -6.4 | -7.02 | -7.21 | -6.5 | -6.74 | -6.59 | -5.63 | -5.71 | -5.86 | -8.4 | -6.06 | -5.78 | -5.69 | -5.68 | -6.92 |
| COc1ccc(-c2nc(N3CCOCC3)c3sc(CN(C)c4ncc(C(=O)NO)cn4)cc3n2)cn1 [CUDC-907] | 331 | 299 | 181 | 315 | 298 | 319 | 346 | 298 | 188 | 290 | 470 | 294 | 294 | 264 | 325 | 368 | -6.78 | -6.29 | -6.31 | -7.01 | -7 | -6.82 | -6.81 | -5.71 | -6.96 | -7.9 | -7.01 | -6.74 | -6.65 | -6.9 | -7.42 |
| O=C(Nc1ccc([N+](=O)[O-])cc1Cl)c1cc(Cl)ccc1O [NICOLSAMIDE] | 142 | 116 | 49.6 | 129 | 119 | 146 | 142 | 123 | 167 | 109 | 232 | 153 | 141 | 85.2 | 115 | 150 | -5.74 | -5.14 | -5.43 | -5.17 | -5.27 | -5.58 | -5.58 | -5.59 | -5.47 | -6.1 | -5.77 | -5.39 | -5.18 | -5.17 | -5.44 |
| CN(C)C/C=C/C(=O)Nc1cc2c(Nc3ccc(F)c(Cl)c3)ncnc2cc1O[C@H]1CCOC1 [AFATINIB] | 116 | 102 | 80.2 | 108 | 115 | 90.9 | 123 | 110 | 85.6 | 130 | 168 | 108 | 87.7 | 86.1 | 99.2 | 144 | -4.72 | -4.84 | -4.88 | -4.86 | -4.92 | -4.82 | -4.73 | -4.71 | -4.84 | -5.4 | -4.85 | -4.81 | -4.75 | -4.73 | -4.88 |
| C[C@@H](Oc1cc(-c2cnn(C3CCNCC3)c2)cnc1N)c1c(Cl)ccc(F)c1Cl [CRIZOTINIB] | 87.8 | 76.5 | 78 | 117 | 107 | 96.9 | 123 | 87.6 | 74.2 | 112 | 200 | 91.9 | 87 | 59.1 | 64 | 112 | -4.84 | -4.84 | -4.89 | -5.15 | -5.11 | -4.85 | -4.83 | -4.81 | -5.01 | -5.77 | -4.88 | -4.9 | -4.67 | -4.69 | -5.11 |
| CC(C)(C)c1cnc(CSc2cnc(NC(=O)C3CCNCC3)s2)o1 | 192 | 121 | 55.9 | 216 | 130 | 221 | 245 | 185 | 176 | 196 | 320 | 208 | 199 | 151 | 171 | 281 | -6.21 | -6.64 | -6.22 | -6.48 | -6.28 | -6.15 | -6.2 | -5.95 | -6.37 | -6.91 | -5.84 | -6.08 | -5.8 | -6.02 | -6.71 |
| CN(C)C/C=C/C(=O)Nc1ccc(C(=O)Nc2cccc(Nc3ncc(Cl)c(-c4c[nH]c5ccccc45)n3)c2)cc1 [THZ1] | 302 | 284 | 186 | 360 | 349 | 342 | 343 | 301 | 308 | 345 | 460 | 356 | 329 | 267 | 272 | 372 | -7.71 | -6.72 | -5.76 | -7.25 | -7.58 | -7.91 | -7.44 | -7.62 | -8.04 | -8.32 | -8.02 | -7.78 | -7.28 | -7.15 | -8.19 |
| Cc1c(C2CCN(CCc3ccccc3)CC2)noc1-c1ccc(Cl)cc1 [L-741,742] | 93.6 | 25.7 | 41.1 | 90.7 | 35.6 | 91.7 | 22.6 | 100 | 21.9 | 36.1 | 145 | 118 | 40.3 | 83.5 | 96.9 | 30.3 | -4.93 | -4.83 | -5 | -4.88 | -4.83 | -4.89 | -4.99 | -4.71 | -4.81 | -4.91 | -4.84 | -4.87 | -4.87 | -4.87 | -5.35 |
| Cc1[nH]c2ccccc2c1CCNCc1ccc(/C=C/C(=O)NO)cc1 [PANOBINOSTAT] | 220 | 272 | 134 | 282 | 253 | 252 | 293 | 228 | 195 | 249 | 355 | 243 | 244 | 216 | 212 | 287 | -6.87 | -6.59 | -6.78 | -6.95 | -6.89 | -6.92 | -6.97 | -6.04 | -6.87 | -7.22 | -6.73 | -6.69 | -6.93 | -6.81 | -7.16 |
